Reference: patent US7550457B2, “Pharmaceutically effective compounds” (CytRx Corporation, priority 2002, dated 2009)

Tests used:
[1] = system: thoracic aorta of SH rats; experiment: Vaso-relaxing effect on the thoracic aorta of SH rats (in vitro testing after one month treatment); type: in vivo, rat; conditions: aorta rings of SH rats treated for one month (dose per compound as in table), contracted with 10^-6 M methoxamine, unit assumed; for vessel relaxing effect, Ach dose 10^-5 M: acetylcholine 10^-5 M; for vessel relaxing effect, Ach dose 10^-6 M: acetylcholine 10^-6 M; for vessel relaxing effect, Ach dose 10^-4 M: acetylcholine 10^-4 M
Protocol: In the following, we give the results of the test of blood vessel relaxing effect, performed in vitro on rat vessels, and also the morphological results of the thoracic aorta.
(§1) Three-month-old, genetically hypertonic (SH) Wistar Okamoto rats were treated for one month with various test compounds. Thereafter the functional and morphological tests were performed.
The Vaso-relaxing Effect of the Compounds of the Invention on the Thoracic Aorta of SH Rats (In Vitro Testing)
The test was performed by the method known from the literature [Japan J. Pharmacol., 59, 339-347 (1992)]. The SH rats were anesthetized with Nembutal (40 mg/kg, i. p.), then the thoracic aorta was removed and placed in oxygenized (95% O2+5% CO2) Krebs-Henseleit solution. The composition of the solution (mM): NaCl 118, KCI 4, 7, CaCl2 2,52, MgSO4 1,64, NaHCO3 24,88, KH2PO4 1,18, glucose 5,5. The 3-mm-long aorta rings were suspended in a 20 ml organ bath of 37° C. The resting tension was 1 g, which was maintained throughout the equilibration. During the 1 hour equilibration, the medium was changed in every 20 minutes. The vessels were contracted with 10^−6 M methoxamine (approximately 80% of maximal contraction). After reaching the maximal contraction, we tested the vasodilation resulting as the effect of the acetylcholine (Ach) (10^−6−10^−4 M), which informed us about the condition of the endothelium of the vessel wall. The contraction force was measured by an isometric strain gauge (SG-01D, Experimentia Ltd), and was registered on an OH-850 polygraph (Radelkis). At this time again, 5,6-dihydro-5-(1-piperidinyl)-methyl-3-(3-pyridyl)-4H-1,2,4-oxadiazine as described in WO 98/06400 was used as a reference compound.

[2] = system: human umbilical vein endothelial cells (HUVEC); experiment: Wounding migration assay in endothelial cell culture; type: cell-based; conditions: wounded HUVEC monolayer, 24 hours after wounding, test agent 10^-6 M
Protocol: Wounding Migration Assay in Endothelial Cell Culture
The effect of the compounds of the invention on the wounded monolayers of human umbilical vein endothelial cells (HUVEC) were studied in a cell culture system (in vitro). After reaching confluence, the HUVEC cells were wounded according to the method of Yamamura et al. (J. Surgical Res. 63, 349-354, 1996). The number of migrated cells were registered using computerized image analysis 24 hours after wounding in the absence and presence of the active agents under testing in a concentration of 10^−6 M. The active ingredient described in publication no. WO 98/06400, namely 5,6-dihydro-5-(1-piperidinyl)-methyl-3-(3-pyridyl)-4H-1,2,4-oxadiazine was used as reference compound.

[3] = system: thoracic aorta of SH rats; experiment: Morphological testing of the thoracic aortas with electron microscopy; type: in vivo, rat; design: key: 1: no regeneration was observable; 2: weak; 3: average; 4: good; 5: strong regeneration; conditions: SH rats treated p. o. for one month (dose per compound as in table), scale of 1 to 5, electron microscopy of thoracic aorta endothelium
Protocol: as §1
Morphological Testing of the Thoracic Aortas with Electron Microscopy
The test was performed according to the procedure known from the literature (Br. J. of Pharmacol., 1995; 115, 415-420). 1 mm^2 pieces of the aorta wall was cut out of the thoracic aorta of the rats, and were then fixed with 2.5% glutaraldehyde at room temperature for 2 hours. This was followed by a post-fixation with 1% osmium tetroxide for 1 hour. Afterwards, the tissue pieces were dehydrated with ethanol, and embedded in Durcupan ACM. The samples were evaluated qualitatively based on the images recorded on a Hitachi 7100 electron microscope.
On the scale, 1 was used to refer to cases where no regeneration was observable, 2 refers to weak, 3 to average, 4 to good, and 5 to strong regeneration.

Row | Compound | vessel relaxing effect, Ach dose 10^-5 M [1] [%] | vessel relaxing effect, Ach dose 10^-6 M [1] [%] | vessel relaxing effect, Ach dose 10^-4 M [1] [%] | number of migrated cells, cell/mm^2 24 hours [2] [cell/mm^2] | Degree of regeneration [3]
1 | O=C1CCCCN1CC1CON=C(c2cccnc2)N1 (single isomer, unassigned) [Compound no. 8, (R) or (S)-5,6-dihydro-5-[(2-oxo-1-piperidinyl)methyl]-3-(3-pyridyl)-4H-1,2,4-oxadiazine] | 88 |  |  |  | 
2 | [O-][n+]1cccc(C2=NOCC(CN3CCCCC3)N2)c1 (single isomer, unassigned; (+)) [Compound no. 9, (+)-5,6-dihydro-5-[(1-piperidinyl)methyl]-3-(1-oxido-3-pyridyl)-4H-1,2,4-oxadiazine] |  | 87 |  |  | 
3 | O.O.O=[N+]([O-])c1cccc(C(Cl)=NOCCC[N+]2([O-])CCCCC2)c1 [Compound no. 4, N-[3-(1-oxido-1-piperidinyl)propoxy]-3-nitro-benzimidoyl-chloride dihydrate] | 84.9 | 82.5 | 88.1 | 45 | 5
4 | OC1CCN(CC2CON=C(c3cccnc3)N2)CC1 (centres unmarked) [Compound no. 11, 5,6-dihydro-5-[(4-hydroxy-1-piperidinyl)methyl]-3-(3-pyridyl)-4H-1,2,4-oxadiazine] | 85.1 | 79.7 | 86 | 51 | 4
5 | Cl.ClC(=NOCC(Cl)CN1CCCCC1)c1ccccc1 (centres unmarked) [Compound no. 12, N-[2-chloro-3-(1-piperidinyl)propoxy]-3-benzimidoyl-chloride hydrochloride] | 83.5 | 82.3 | 80.4 | 60 | 3
6 | O=C(NOCC(O)CN1CCCCC1)c1ccc[n+]([O-])c1 (centres unmarked) [Compound no. 13, N-[2-hydroxy-3-(1-piperidinyl)propoxy]-pyridin-1-oxide-3-carboxamide] | 90.3 | 88.4 | 95.2 | 54 | 4
7 | c1cncc(C2=NOCC(CN3CCCCC3)N2)c1 (centres unmarked) [Reference, 5,6-dihydro-5-(1-piperidinyl)-methyl-3-(3-pyridyl)-4H-1,2,4-oxadiazine, reference compound] | 80.2 | 77.4 | 81.7 | 30 | 
